Experimental data reported in ChEMBL document CHEMBL2429773, “Synthesis and antiseizure evaluation of isoindoline-1,3-dione derivatives in mice” (Med Chem Res, 2013).

Columns and labels:
Mus musculus [1] = experiment: Anticonvulsant activity in albino mouse assessed as protection against subcutaneous pentylenetetrazole-induced death measured as mortality at 300 mg/kg, ip after 0.5 hr; format: functional; settings: sc, route intraperitoneal
Mus musculus [2] = experiment: Anticonvulsant activity in albino mouse assessed as protection against subcutaneous pentylenetetrazole-induced death measured as mortality at 100 mg/kg, ip after 0.5 hr; format: functional; settings: sc, route intraperitoneal
Mus musculus [3] = experiment: Anticonvulsant activity in albino mouse assessed as protection against subcutaneous pentylenetetrazole-induced death measured as mortality at 30 mg/kg, ip after 0.5 hr; format: functional; settings: sc
Mus musculus [4] = experiment: Anticonvulsant activity against subcutaneous pentylenetetrazole-induced seizures in albino mouse assessed as seizure at 100 mg/kg, ip after 0.5 hr; format: functional
Mus musculus [5] = experiment: Anticonvulsant activity against subcutaneous pentylenetetrazole-induced seizures in albino mouse assessed as onset of seizure time at 300 mg/kg, ip after 0.5 hr; format: functional; settings: route intraperitoneal
Mus musculus [6] = experiment: Anticonvulsant activity against subcutaneous pentylenetetrazole-induced seizures in albino mouse assessed as onset of seizure time at 100 mg/kg, ip after 0.5 hr; format: functional; settings: route intraperitoneal
Mus musculus [7] = experiment: Anticonvulsant activity against subcutaneous pentylenetetrazole-induced seizures in albino mouse assessed as onset of seizure time at 30 mg/kg, ip after 0.5 hr; format: functional; settings: route intraperitoneal
Mus musculus [8] = experiment: Anticonvulsant activity against subcutaneous pentylenetetrazole-induced seizures in albino mouse assessed as duration of seizure time at 300 mg/kg, ip after 0.5 hr; format: functional; settings: route intraperitoneal
Mus musculus [9] = experiment: Anticonvulsant activity against subcutaneous pentylenetetrazole-induced seizures in albino mouse assessed as duration of seizure time at 100 mg/kg, ip after 0.5 hr; format: functional; settings: route intraperitoneal
Mus musculus [10] = experiment: Anticonvulsant activity against subcutaneous pentylenetetrazole-induced seizures in albino mouse assessed as duration of seizure time at 30 mg/kg, ip after 0.5 hr; format: functional; settings: route intraperitoneal
Mus musculus [11] = experiment: Anticonvulsant activity in ip dosed albino mouse assessed as protection against maximal electroshock-induced seizures after 0.5 hr; format: functional
Mus musculus [12] = experiment: Anticonvulsant activity against maximal electroshock-induced seizure in albino mouse assessed as seizures at 300 mg/kg, ip after 0.5 hr; format: functional; settings: route intraperitoneal
Mus musculus [13] = experiment: Anticonvulsant activity against maximal electroshock-induced seizures in albino mouse assessed as seizure at 100 mg/kg, ip after 0.5 hr; format: functional; settings: route intraperitoneal
Mus musculus [14] = experiment: Anticonvulsant activity against maximal electroshock-induced seizures in albino mouse assessed as seizure at 30 mg/kg, ip after 0.5 hr; format: functional; settings: route intraperitoneal
[15] = Neurotoxicity in ip dosed albino mouse measured after 30 mins by rotarod method; format: toxicity, organism-based; settings: in vivo
Mus musculus [16] = experiment: Protective index, ratio of TD50 for neurotoxicity in ip dosed albino mouse to ED50 for anticonvulsant activity in ip dosed albino mouse; format: functional

Row | SMILES | mortality at 300 mg/kg (Mus musculus [1]) | mortality at 100 mg/kg (Mus musculus [2]) | mortality at 30 mg/kg (Mus musculus [3]; route intraperitoneal) | Activity (Mus musculus [4]; route intraperitoneal) | Time (Mus musculus [5]) | Time (Mus musculus [6]) | Time (Mus musculus [7]) | Time (Mus musculus [8]) | Time (Mus musculus [9]) | Time (Mus musculus [10]) | ED50 (Mus musculus [11]) | Activity (Mus musculus [12]) | Activity (Mus musculus [13]) | Activity (Mus musculus [14]) | TD50 at 0.5 h [15] | Ratio TD50/ED50 (Mus musculus [16]) | mortality at 30 mg/kg (Mus musculus [3]) | Activity (Mus musculus [4]; ROUTE)
1 | COc1cccc(N2C(=O)c3ccccc3C2=O)c1 | 25% | 75% | 100% | 100% | 10.25 min | 7.25 min | 3 min | 22.25 min | 18.75 min | 7.25 min | > 300 mg/kg | 75% | 100% | 100% |  |  |  | 
2 | O=C1c2ccccc2C(=O)N1c1ccc(Cl)cc1 | 75% | 75% | 100% | 100% | 8.25 min | 3.25 min | 3 min | 19.25 min | 12.75 min | 10.5 min | 55 mg/kg | 25% | 25% | 75% | > 300 mg/kg | >5.54 |  | 
3 | O=C1c2ccccc2C(=O)N1c1cccc(Cl)c1 | 25% | 75% | 100% | 100% | 4.75 min | 3.75 min | 3.5 min | 9 min | 7 min | 11.25 min | 190 mg/kg | 25% | 100% | 100% | 300 mg/kg | 1.57 |  | 
4 | COc1ccc(N2C(=O)c3ccccc3C2=O)cc1 | 0% | 100% | 100% | 100% | 13.5 min | 5.25 min | 3 min | 23.75 min | 22.25 min | 11.75 min | 15.1 mg/kg | 0% | 25% | 25% | 89.3 mg/kg | 5.91 |  | 
5 | O=C1c2ccccc2C(=O)N1c1ccccc1Cl | 100% | 75% | 100% | 100% | 9.5 min | 6.5 min | 1.5 min | 24.5 min | 14.25 min | 8.25 min | 168 mg/kg | 25% | 75% | 100% |  |  |  | 
6 | O=C1c2ccccc2C(=O)N1c1ccccc1F | 75% | 100% | 100% | 100% | 4.75 min | 5 min | 2 min | 12 min | 9 min | 5.5 min | > 300 mg/kg | 0% | 75% | 100% | 233 mg/kg | <0.77 |  | 
7 | O=C1c2ccccc2C(=O)N1c1cccc(F)c1 | 75% | 100% | 100% | 100% | 4.75 min | 4 min | 5 min | 14 min | 11 min | 10.5 min | 39.7 mg/kg | 25% | 0% | 100% | 31.7 mg/kg | 0.79 |  | 
8 | O=C1c2ccccc2C(=O)N1c1ccc(F)cc1 | 0% | 25% | 25% | 100% | 15.25 min | 8.5 min | 3 min | 23.5 min | 23.75 min | 13.25 min | > 300 mg/kg | 75% | 100% | 100% | 182 mg/kg | <0.6 |  | 
9 | O=C1c2ccccc2C(=O)N1c1cccc([N+](=O)[O-])c1 | 75% | 100% | 100% | 100% | 10.5 min | 4.5 min | 3.5 min | 18.25 min | 16.5 min | 6 min | 174 mg/kg | 25% | 75% | 100% | 74.2 mg/kg | 0.42 |  | 
10 | O=C1c2ccccc2C(=O)N1c1ccc([N+](=O)[O-])cc1 | 75% | 75% | 75% | 100% | 6.25 min | 4 min | 3.5 min | 15.5 min | 11.75 min | 5.75 min | 62.3 mg/kg | 25% | 25% | 100% | 176 mg/kg | 2.81 |  | 
11 | COc1ccccc1N1C(=O)c2ccccc2C1=O | 75% | 100% | 100% | 100% | 7.25 min | 5.75 min | 2.75 min | 13.5 min | 9.75 min | 9.75 min | 195 mg/kg | 25% | 100% | 100% | 222 mg/kg | 1.14 |  | 
12 | O=C1c2ccccc2C(=O)N1c1ccccc1[N+](=O)[O-] | 75% | 0% | 100% | 100% | 8.75 min | 7.5 min | 2 min | 18 min | 22.5 min | 7 min | 53.5 mg/kg | 0% | 25% | 75% | > 300 mg/kg | >5.6 |  | 
13 | CN1C(=O)CN=C(c2ccccc2)c2cc(Cl)ccc21 [DIAZEPAM] |  |  |  |  |  |  |  |  |  |  | 1.8 mg/kg |  |  |  |  |  | 0% | 0%
14 | O=C1c2ccccc2C(=O)N1c1ccccc1 [N-PHENYL-PHTHALIMIDE] | 25% | 100% | 100% | 100% | 6 min | 4.5 min | 3.25 min | 15.75 min | 11 min | 3.75 min | 66.2 mg/kg | 0% | 25% | 100% | > 300 mg/kg | >4.53 |  | 
